According to a melting point compilation (Tetko et al.; mined from patent text by program, amines drawn as free bases though some values may be those of a salt):

SMILES | melting point
OC1CCN(c2ncc(-c3cccc(Cl)c3)cn2)CC1 | 160 to 162 °C
CC1C(=O)NC2=Nc3ccc(OCCCCC(=O)N(CCO)C4CCCCC4)c(Cl)c3CN21 (stereo not given) | 206 to 208 °C
CC1(C)CN(CC(=O)c2ccccc2)c2cc([N+](=O)[O-])ccc2O1 | 125 to 128 °C
Nc1sc2c(c1C(=O)c1ccc3ccccc3c1)CCN(Cc1ccc(Cl)cc1)C2 | 105 to 108 °C
O=C(C=Cc1cccc(Br)c1)c1cnc2sc3c(n12)CCCCC3 | 125 to 126 °C
Nc1cccc(-c2ccc(CCN3CCN(C(=O)NC4CCCCC4)CC3)cc2)n1 | 180 to 182 °C
Cc1nnc2n1-c1sc(Cc3ccccc3)cc1C(c1ccccc1Cl)=NC2 | 161 to 163 °C
Cn1nnnc1Cn1nnnc1Cl | 138 to 140 °C
CCc1nc2c(N)nc3ccccc3c2n1CC1(O)CCCC1 | 210 °C
OCCCn1c(C2CCCCC2)nc2ccc(Cl)cc21 | 120 °C
CCCCCCCCCC(O)CNCCCNCC(O)CCCCCCCCC (stereo not given) | 94 to 103 °C
COCCOC(=O)c1c(S(C)(=O)=O)ccc(C(=O)O)c1C | 90 to 93 °C
COC(=O)C=Cc1nc(C(=O)CCCC(=O)OC)ccc1OC | 87 to 89 °C
CC(C)c1ccc2c(CCCCNS(=O)(=O)c3ccccc3)cc(C(=O)O)c-2cc1 | 167 to 168 °C
CCOC(=O)C(=CNc1nonc1C)C(=O)c1cc(F)c(F)cc1F | 104 to 107 °C
Cc1cnc(Cl)c2c3cc(O)ccc3n(C)c12 | > 260 °C
Cc1n[nH]c2cc(-c3nn(Cc4oc5ccc(F)cc5c(=O)c4-c4ccccc4)c4ncnc(N)c34)ccc12 | 277 to 279 °C
CN(c1cccnc1Cl)S(=O)(=O)c1ccccc1[N+](=O)[O-] | 116 to 118 °C
CCCc1nc2c(N)nc3cc(-c4ccc(F)cc4CN)ccc3c2s1 | 181 to 184 °C
CC(C)(Oc1ccc2c(c1)CC(NCc1ccccc1)CC2)C(=O)O (stereo not given) | 240 to 242 °C
CCN1CCCC1CNC(=O)c1ccc(Cl)nc1Cl (stereo not given) | 73 to 74 °C
C=CC(=O)NC(=O)NCCS(=O)C=C (stereo not given) | 109 to 110 °C
O=[N+]([O-])c1c(NCC23CCCN2CCC3)cnc2ccccc12 | 95 to 99 °C
CCc1ccc(Nc2c(-c3nnc(NCCO)o3)ccc(F)c2F)c(F)c1 | 100 to 103 °C

SMILES | melting point
COc1ccc2c(c1)CCn1c-2ncc(C(=O)O)c1=O | 232 to 234 °C
C=CCN(CC=C)c1ccc(C(C)N(O)C(N)=O)cc1 (stereo not given) | 112 to 114 °C
O=C(O)C1=Cc2cc(C(=O)c3ccccc3)ccc2OC1C(F)(F)F (stereo not given) | 270 to 271 °C
CCCN(CCC)Cc1cnc(-c2ncn3c2CN(C)C(=O)c2sccc2-3)o1 | 142 to 144 °C
O=C(Cc1ccc(Cl)c(Cl)c1)N1CCNC2CCCCC21 (stereo not given) | 119 to 120 °C
CCC(CC)n1c(=O)n(C)c2c(Oc3c(C)cc(C)cc3C)nc(C)cc21 | 152 to 154 °C
COc1ccc(-c2nc(-c3ccccc3)n(CCCCCCCC(=O)O)c2-c2ccc(OC)cc2)cc1 | 149 to 150 °C
CCn1c(=O)c(=O)[nH]c2cc(-n3cccc3)c([N+](=O)[O-])cc21 | 248 to 250 °C
O=C(OCCN1CCN(c2ccc(Cl)cc2)CC1)c1sccc1Nc1ccnc2c(C(F)(F)F)cccc12 | 155 °C
CCOC(=O)C1(O)CSC(O)(C(=O)OCC)CS1 (stereo not given) | 139 to 143 °C
OC(c1ccc(Cl)cc1)(c1cccnc1)c1ccc2noc(-c3cccc(Cl)c3)c2c1 (stereo not given) | 199 °C
CCCCCCCCn1c2cc(I)ccc2c2ccc(I)cc21 | 82 to 84 °C
Cc1ccccc1NC(=O)Nc1ccc(CC(=O)N2CCN(C(C)C(=O)O)C(=O)C2Cc2ccccc2)cc1 (stereo not given) | 103 to 105 °C
COc1cc(C=C2C(=O)CCc3ccccc32)c([N+](=O)[O-])cc1OC | 58 to 60 °C
CCOC(=O)c1cc(NC(C)=O)ccc1OC(C)=O | 91.5 to 92.5 °C
Cc1cc(-c2nc(COc3ccc(CCCn4ccnc4)cc3)co2)sc1Br | 92 to 93 °C
COc1c(Cl)nc(-c2ccccc2)nc1Cl | 78 to 80 °C
Cc1c(NC(=O)C(CSC(=O)C2CCCCC2)Cc2ccccc2)cccc1C(=O)O (stereo not given) | 117 to 120 °C
COc1cc(C(=O)c2ncc3ccccn23)ccc1[N+](=O)[O-] | 183 °C
O=C(Nc1cc(S(=O)(=O)NCCO)sc1Cl)c1cnn2c(C(F)(F)F)cc(-c3ccc(C(F)(F)F)cc3)nc12 | 191 °C
CC(=O)CN(C(=O)c1ccco1)c1c(C)cccc1C | 90 to 91 °C
CCOC(=O)c1ccc(-c2ccc(OCCCI)c(-c3ccc4c(c3)C(C)(C)CCC4(C)C)c2)cc1 | 118 °C
CON1CCC2(CC1)NC(=O)C(F)(c1cc(C)ccc1C)C2=O (stereo not given) | 127 to 130 °C
COC(=O)c1ccccc1S(=O)(=O)NC(=O)c1ccc2c(C)cc(C)nn12 | 200 to 202 °C

SMILES | melting point
O=c1nc(-c2ccc(O)cc2)oc2ccccc12 | 273 to 275 °C
c1ccc(-c2cc3ncnc(Nc4ccc5c(ccn5CCN5CCOCC5)c4)c3s2)cc1 | 225 to 226 °C
O=C1OCCN1c1cc(-c2ccnc(Nc3cccc(Cl)c3)n2)ccn1 | 162 to 163 °C
CC(C)(CCCCCCCCC(C)(C)NC(=O)Cc1cc(C(C)(C)C)c(O)c(C(C)(C)C)c1)NC(=O)Cc1cc(C(C)(C)C)c(O)c(C(C)(C)C)c1 | 168 °C
CCOC(=O)c1cn(C2COC2)c2c(F)c(F)c(F)c(F)c2c1=O | 110 to 113 °C
Cn1ncc(-c2nn(-c3cccc(C(F)(F)F)c3)ccc2=O)c1-c1ccccc1 | 193 to 195 °C
O=C(O)CS(=O)(=O)CC(F)(F)F | 145 °C
O=C1CCCN1CC1(O)CCN(c2ccnc(C(F)(F)F)n2)CC1 | 170 to 172 °C
C=CCSC1(C(F)(F)F)CN(C2CC2)C(=O)Nc2ccc(Cl)cc21 (stereo not given) | 144 to 146 °C
COc1ccc(S(N)(=O)=O)cc1C(=O)NCC1CCCN1C1CC1 (stereo not given) | 163 °C
O=C(O)c1cn2c3c(ccc([N+](=O)[O-])c3c1=O)C1CCCCC12 (stereo not given) | 251 to 253 °C
CNC(=O)c1cc(-c2ccc(-c3ccco3)cc2)n(-c2ccc(S(C)(=O)=O)c(F)c2)n1 | 196 to 198 °C
O=[N+]([O-])c1ccc(Oc2ccc3cc(Oc4ccc([N+](=O)[O-])c(O)c4)ccc3c2)cc1O | 244 to 246 °C
COc1ccc(-c2cccc(C#N)n2)cc1 | 86.3 to 86.6 °C
CC1(C)CC(=O)c2c(Nc3ccccc3)cn(-c3ccccn3)c2C1 | 135 to 138 °C
O=C(c1cnc2ccccc2c1)C1CCN(C(=O)c2ccccc2)CC1 | 170 °C
Cc1ccc2c(c1)C(=O)N1CCN=C1N2N1CCCCC1 | 197 to 199 °C
Nc1nc2c(s1)CCN(CC=Cc1cccc(C(F)(F)F)c1)CC2 | 102 to 105 °C
Nc1ccnn1-c1c(F)c(F)c(C(F)(F)F)c(F)c1F | 103 to 104 °C
CCOc1cc2ncc(Nc3cccc(F)c3)nc2cc1OCC | 193 °C
CCOC(=O)CC1SC(c2cc(C(C)(C)C)c(O)c(C(C)(C)C)c2)N(CCCN(C)CCOc2ccc3c(c2)OCO3)C1=O (stereo not given) | 88 to 89 °C
CC(C)(O)CCn1c2ccccc2c2cc(NC(=O)c3ccccc3Cl)ccc21 | 120 to 124 °C
